Reference: patent US20060069132A1, “Azolecarboxamide herbicides” (priority 2004, published 2006)
Like-named read-outs stand apart in the source and are kept apart here.

What was measured:
barnyardgrass [1] = assay: Test B flooded paddy test; assay type: in vivo, Echinochloa crus-galli; details: 1000 g ai/ha, visual rating, scale 0 to 100 (0 no effect, 100 complete control), 13 to 15 days
How it was run: (§1)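 Each value is a visual 0–100 response rating taken against controls 13 to 15 days after treatment in the greenhouse. Plants received formulated chemical postemergence at the 1- to 4-leaf stage or, in flooded paddy, at the 2-leaf stage.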

Surinam grass = assay: Test B pre-/postemergence herbicide test; assay type: in vivo, Urochloa decumbens
How it was run: (§2)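 Herbicidal effect was judged by eye on a 0–100 scale after plants stood 13 to 15 days in the greenhouse following pre- or postemergence treatment with surfactant-containing formulations.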

morningglory = assay: Test B pre-/postemergence herbicide test; assay type: in vivo, Ipomoea coccinea
How it was run: (§3)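 Evaluation is visual, comparing treated with control plants on a scale where 0 means no effect and 100 means full control. Treatments were preemergence, or postemergence on seedlings 2–18 cm tall, and held 13–15 days in the greenhouse.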

velvetleaf = assay: Test B pre-/postemergence herbicide test; assay type: in vivo, Abutilon theophrasti
How it was run: as §2

large crabgrass = assay: Test B pre-/postemergence herbicide test; assay type: in vivo, Digitaria sanguinalis
How it was run: as §2

[2] = system: small flower umbrella sedge; assay: Test B flooded paddy test; assay type: in vivo, Cyperus difformis; details: 1000 g ai/ha, visual rating, scale 0 to 100 (0 no effect, 100 complete control), 13 to 15 days
How it was run: as §1

lambsquarters = assay: Test B pre-/postemergence herbicide test; assay type: in vivo, Chenopodium album
How it was run: as §2

pigweed = assay: Test B pre-/postemergence herbicide test; assay type: in vivo, Amaranthus retroflexus
How it was run: as §2

cocklebur = assay: Test B pre-/postemergence herbicide test; assay type: in vivo, Xanthium strumarium
How it was run: as §3

giant foxtail = assay: Test B pre-/postemergence herbicide test; assay type: in vivo, Setaria faberi
How it was run: as §2

barnyardgrass [3] = assay: Test B pre-/postemergence herbicide test; assay type: in vivo, Echinochloa crus-galli
How it was run: as §3

ducksalad = assay: Test B flooded paddy test; assay type: in vivo, Heteranthera limosa; details: 1000 g ai/ha, visual rating, scale 0 to 100 (0 no effect, 100 complete control), 13 to 15 days
How it was run: as §1

wheat = assay: Test B postemergence herbicide test; assay type: in vivo, Triticum aestivum; details: Postemergence, scale 0 (no effect) to 100 (complete control); for Plant response rating, Wheat: 500 g ai/ha, visual rating after 13 to 15 days
How it was run: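 Read-out: visual comparison with controls, scored 0 to 100, where 100 means complete control and 0 no effect. Formulated chemicals were applied postemergence to plants 2–18 cm tall (1- to 4-leaf), or to flooded-paddy plants at the 2-leaf stage, then held 13 to 15 days under glass.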

blackgrass = assay: Test B postemergence herbicide test; assay type: in vivo, Alopecurus myosuroides; details: Postemergence, scale 0 (no effect) to 100 (complete control); for Plant response rating, Blackgrass: 500 g ai/ha, visual rating after 13 to 15 days
How it was run: as §1

rice = assay: Test B flooded paddy test; assay type: in vivo, Oryza sativa; details: 1000 g ai/ha, visual rating, scale 0 to 100 (0 no effect, 100 complete control), 13 to 15 days
How it was run: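 Treated at 2-leaf (paddy) or 1–4-leaf, 2–18 cm (postemergence); greenhouse 13–15 d; visual score vs control, 0 none to 100 complete control; dash = not tested.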

[4] = Postemergence, 500 g ai/ha, visual rating after 13 to 15 days, scale 0 (no effect) to 100 (complete control)
[5] = Preemergence, 500 g ai/ha, scale 0 to 100
[6] = preemergence, 125 g ai/ha, 0 to 100 scale, 0 is no effect, 100 is complete control
[7] = Postemergence, 125 g ai/ha, scale 0 (no effect) to 100 (complete control)

CCn1nc(C(C)(C)C)cc1C(=O)Nc1cc(C(=O)N(C)C)ccc1F [Compound 6, N-[5-[(dimethylamino)carbonyl]-2-fluorophenyl]-3-(1,1-dimethylethyl)-1-ethyl-1H-pyrazole-5-carboxamide]
90%: pest or weed control at 1000 g/ha (barnyardgrass [1]; Echinochloa crus-galli, 336 h, read-out: Barnyardgrass plant response rating) | pest or weed control at 1000 g/ha ([2]; Cyperus difformis, 336 h, read-out: Sedge, Umbrella plant response rating) | pest or weed control at 1000 g/ha (ducksalad; Heteranthera limosa, 336 h, read-out: Ducksalad plant response rating)
30%: pest or weed control at 500 g/ha (large crabgrass; Digitaria sanguinalis, post-emergence, Postemergence, 500 g ai/ha, visual rating after 13 to 15 days, scale 0 (no effect) to 100 (complete control), read-out: Plant response rating, Crabgrass, Large) | pest or weed control at 125 g/ha (lambsquarters; Chenopodium album, post-emergence, 336 h, Postemergence, 125 g ai/ha, scale 0 (no effect) to 100 (complete control), read-out: Lambsquarters plant response rating)
80%: pest or weed control at 500 g/ha (cocklebur; Xanthium strumarium, post-emergence, Postemergence, 500 g ai/ha, visual rating after 13 to 15 days, scale 0 (no effect) to 100 (complete control), read-out: Plant response rating, Cocklebur) | pest or weed control at 500 g/ha (barnyardgrass [3]; Echinochloa crus-galli, post-emergence, Postemergence, 500 g ai/ha, visual rating after 13 to 15 days, scale 0 (no effect) to 100 (complete control), read-out: Plant response rating, Barnyardgrass) | plant injury at 1000 g/ha (rice; Oryza sativa, 336 h, read-out: Rice plant response rating)
40: Plant response rating, Wheat (wheat)
60%: pest or weed control at 500 g/ha (Surinam grass; Urochloa decumbens, post-emergence, Postemergence, 500 g ai/ha, visual rating after 13 to 15 days, scale 0 (no effect) to 100 (complete control), read-out: Plant response rating, Surinam Grass) | pest or weed control at 500 g/ha (velvetleaf; Abutilon theophrasti, post-emergence, 336 h, Postemergence, 500 g ai/ha, visual rating after 13 to 15 days, scale 0 (no effect) to 100 (complete control), read-out: Plant response rating, Velvetleaf)
0%: pest or weed control at 125 g/ha (morningglory; Ipomoea, post-emergence, 336 h, Postemergence, 125 g ai/ha, scale 0 (no effect) to 100 (complete control), read-out: Morningglory plant response rating) | pest or weed control at 500 g/ha (morningglory; Ipomoea, post-emergence, 336 h, Postemergence, 500 g ai/ha, visual rating after 13 to 15 days, scale 0 (no effect) to 100 (complete control), read-out: Plant response rating, Morningglory) | pest or weed control at 125 g/ha (velvetleaf; Abutilon theophrasti, post-emergence, 336 h, Postemergence, 125 g ai/ha, scale 0 (no effect) to 100 (complete control), read-out: Velvetleaf plant response rating) | pest or weed control at 125 g/ha (cocklebur; Xanthium strumarium, post-emergence, Postemergence, 125 g ai/ha, scale 0 (no effect) to 100 (complete control), read-out: Cocklebur plant response rating) | pest or weed control at 125 g/ha (barnyardgrass [3]; Echinochloa crus-galli, post-emergence, Postemergence, 125 g ai/ha, scale 0 (no effect) to 100 (complete control), read-out: Barnyardgrass plant response rating) | plant injury at 125 g/ha (wheat; Triticum aestivum, post-emergence, 336 h, 125 g ai/ha, read-out: Wheat plant response rating)
90: Plant response rating, Blackgrass (blackgrass)
100%: pest or weed control at 500 g/ha (Surinam grass; Urochloa decumbens, pre-emergence, Preemergence, 500 g ai/ha, scale 0 to 100, read-out: Surinam Grass plant response rating) | pest or weed control at 500 g/ha (velvetleaf; Abutilon theophrasti, pre-emergence, 336 h, Preemergence, 500 g ai/ha, scale 0 to 100, read-out: Velvetleaf plant response rating) | pest or weed control at 500 g/ha (large crabgrass; Digitaria sanguinalis, pre-emergence, Preemergence, 500 g ai/ha, scale 0 to 100, read-out: Crabgrass, Large plant response rating) | pest or weed control at 500 g/ha (lambsquarters; Chenopodium album, post-emergence, 336 h, Postemergence, 500 g ai/ha, visual rating after 13 to 15 days, scale 0 (no effect) to 100 (complete control), read-out: Plant response rating, Lambsquarters) | pest or weed control at 500 g/ha (lambsquarters; Chenopodium album, pre-emergence, 336 h, Preemergence, 500 g ai/ha, scale 0 to 100, read-out: Lambsquarters plant response rating) | pest or weed control at 500 g/ha (pigweed; Amaranthus retroflexus, pre-emergence, 336 h, Preemergence, 500 g ai/ha, scale 0 to 100, read-out: Pigweed plant response rating) | pest or weed control at 500 g/ha (cocklebur; Xanthium strumarium, pre-emergence, Preemergence, 500 g ai/ha, scale 0 to 100, read-out: Cocklebur plant response rating) | pest or weed control at 500 g/ha (giant foxtail; Setaria faberi, pre-emergence, 336 h, Preemergence, 500 g ai/ha, scale 0 to 100, read-out: Foxtail, Giant plant response rating) | pest or weed control at 500 g/ha (barnyardgrass [3]; Echinochloa crus-galli, pre-emergence, Preemergence, 500 g ai/ha, scale 0 to 100, read-out: Barnyardgrass plant response rating)
10%: pest or weed control at 125 g/ha (Surinam grass; Urochloa decumbens, post-emergence, Postemergence, 125 g ai/ha, scale 0 (no effect) to 100 (complete control), read-out: Surinam Grass plant response rating) | pest or weed control at 125 g/ha (giant foxtail; Setaria faberi, post-emergence, 336 h, Postemergence, 125 g ai/ha, scale 0 (no effect) to 100 (complete control), read-out: Foxtail, Giant plant response rating)
20%: pest or weed control at 125 g/ha (large crabgrass; Digitaria sanguinalis, post-emergence, Postemergence, 125 g ai/ha, scale 0 (no effect) to 100 (complete control), read-out: Crabgrass, Large plant response rating) | pest or weed control at 125 g/ha (pigweed; Amaranthus retroflexus, post-emergence, 336 h, Postemergence, 125 g ai/ha, scale 0 (no effect) to 100 (complete control), read-out: Pigweed plant response rating) | pest or weed control at 500 g/ha (giant foxtail; Setaria faberi, post-emergence, 336 h, Postemergence, 500 g ai/ha, visual rating after 13 to 15 days, scale 0 (no effect) to 100 (complete control), read-out: Plant response rating, Foxtail, Giant) | pest or weed control at 125 g/ha (blackgrass; Alopecurus myosuroides, post-emergence, 336 h, 125 g ai/ha, read-out: Blackgrass plant response rating)
70%: pest or weed control at 500 g/ha (pigweed; Amaranthus retroflexus, post-emergence, 336 h, Postemergence, 500 g ai/ha, visual rating after 13 to 15 days, scale 0 (no effect) to 100 (complete control), read-out: Plant response rating, Pigweed)

CCCCn1nc(C(C)(C)C)cc1C(=O)Nc1cccc(C(=O)NCC)c1 [Compound 41]
50: Barnyardgrass plant response rating (barnyardgrass [1])
30: Plant response rating, Crabgrass, Large (large crabgrass; [4])
20: Plant response rating, Surinam Grass (Surinam grass; [4]) | Plant response rating, Velvetleaf (velvetleaf; [4]) | Crabgrass, Large plant response rating (large crabgrass; [7]) | Plant response rating, Foxtail, Giant (giant foxtail; [4]) | Plant response rating, Barnyardgrass (barnyardgrass [3]; [4]) | Plant response rating, Blackgrass (blackgrass) | Rice plant response rating (rice)
10: Plant response rating, Surinam Grass (Surinam grass; [6]) | Morningglory plant response rating (morningglory; [5]) | Velvetleaf plant response rating (velvetleaf; [5]) | Cocklebur plant response rating (cocklebur; [7]) | Foxtail, Giant plant response rating (giant foxtail; [7]) | Plant response rating, Foxtail, Giant (giant foxtail; [6]) | Barnyardgrass plant response rating (barnyardgrass [3]; [7]) | Plant response rating, Wheat (wheat) | Blackgrass plant response rating (blackgrass; 125 g ai/ha)
0: Plant response rating, Morningglory (morningglory; [6]) | Plant response rating, Velvetleaf (velvetleaf; [6]) | Cocklebur plant response rating (cocklebur; [5])
40: Plant response rating, Cocklebur (cocklebur; [4])
80: Plant response rating, Lambsquarters (lambsquarters; [6]) | Barnyardgrass plant response rating (barnyardgrass [3]; [5])
100: Crabgrass, Large plant response rating (large crabgrass; [5]) | Lambsquarters plant response rating (lambsquarters; [5])
70: Sedge, Umbrella plant response rating [2] | Plant response rating, Lambsquarters (lambsquarters; [4]) | Plant response rating, Pigweed (pigweed; [4]) | Pigweed plant response rating (pigweed; [5]) | Plant response rating, Pigweed (pigweed; [6]) | Foxtail, Giant plant response rating (giant foxtail; [5])
60: Surinam Grass plant response rating (Surinam grass; [5]) | Lambsquarters plant response rating (lambsquarters; [7]) | Ducksalad plant response rating (ducksalad)
